The text below walks through data of ChEMBL document CHEMBL4138238, “A minimalistic approach to develop new anti-apicomplexa polyamines analogs” (Eur J Med Chem, 2018).

Structures are written as SMILES. Active and inactive are the calls of the source. The calls are words filed in the database; no cut-off is given here.

Data set [1] relates to Toxoplasma gondii. In words: Growth inhibition of GFP-fused Toxoplasma gondii RH infected in HFF at 1 uM after 3 days by fluorescence microscopic method relative to control. It counts as functional. The note with it: for inhibition of growth at 1 µM: 72 h, read-out: GI.
The subject of data set [2] is Plasmodium falciparum. The experiment in a line: microbe, parasite or virus in culture. The following applies: D6, 48 h.
Data set [3] can be described thus: Selectivity index, ratio of IC50 for African green monkey Vero cells to IC50 for chloroquine-resistant Plasmodium falciparum W2. It counts as toxicity. The following applies: read-out: Ratio IC50.
The subject of data set [4] is Vero. The experiment in a line: Cytotoxicity against African green monkey Vero cells assessed as reduction in cell viability after 48 hrs. It counts as cell-based. The note with it: Chlorocebus sabaeus.
Data set [5] relates to Plasmodium falciparum. In words: microbe, parasite or virus in culture. The note with it: W2, 48 h.
Data set [6] can be described thus: Selectivity index, ratio of IC50 for African green monkey Vero cells to IC50 for chloroquine-sensitive Plasmodium falciparum D6. The format is toxicity. The following applies: read-out: Ratio IC50.
Data set [7] concerns HFF. The experiment in a line: Cytotoxicity against HFF cells at 10 uM. It counts as cell-based. The note with it: human.
Data set [8] deals with Toxoplasma gondii. The experiment in a line: Antiparasitic activity against Toxoplasma gondii RH infected in HFF treated at 4 hrs post infection measured at 5 days post infection by crystal violet staining based method. The format is functional, organism-based.

On to `COc1ccc(CNCCCCNCc2ccc(OC)cc2)cc1`, for which the inhibition of growth at 1 µM in data set [1] came out at 25%. Besides, the figures for the IC50 in data set [2], in data set [4] and in data set [5] were 4.57 µM, > 4.46 µg/mL and 6.69 µM, respectively. In addition, the selectivity ratio was > 2.2 in data set [3] and > 3.2 in data set [6].

On to `COc1cc(CNCCCNCc2ccc(OCc3ccccc3)c(OC)c2)ccc1OCc1ccccc1`, for which, in data set [7], the Activity result is “Non-Toxic”. In addition, the inhibition of growth at 1 µM in data set [1] came out at 100%. Also, the half-maximal inhibitory concentration (IC50) is 0.42 µM in data set [2], 0.47 µM in data set [5] and 1.53 µM in data set [8].

Turning to `COc1cc(CNCCCCNCc2ccc(OCc3ccccc3)c(OC)c2)ccc1OCc1ccccc1`, in data set [1], the inhibition of growth at 1 µM was found to be 50%. For the same compound, the IC50 is 0.33 µM in data set [2], > 4.46 µg/mL in data set [4] and 0.49 µM in data set [5]. The results for the selectivity ratio in data set [3] and in data set [6] were > 18.4 and > 27.4, respectively.

Turning to `c1ccc(CNCCCNCc2ccccc2)cc1`, the inhibition of growth at 1 µM in data set [1] turned out to be 25%. Also, the figures for the concentration for half-maximal inhibition (IC50) in data set [2], in data set [4] and in data set [5] were 2.35 µM, > 4.46 µg/mL and 2.63 µM, respectively. For the same compound, the selectivity ratio is > 7.1 in data set [3] and > 7.9 in data set [6].

On to `COc1ccc(CNCCCCCCCCCCCCNCc2ccc(OC)cc2)cc1`, for which the inhibition of growth at 1 µM in data set [1] amounted to 75%. The results for the IC50 in data set [2], in data set [4] and in data set [5] were 1.58 µM, > 4.46 µg/mL and 1.86 µM, respectively. The selectivity ratio was > 5.8 in data set [3] and > 6.8 in data set [6].

With `COc1ccc(CNCCCCCCCCCCNCc2ccc(OC)cc2)cc1`, the inhibition of growth at 1 µM in data set [1] is 50%. Moreover, the half-inhibitory concentration (IC50) in data set [2] is 0.6 µM; in data set [4] it was > 4.46 µg/mL; in data set [5], 0.67 µM. The figures for the selectivity ratio in data set [3] and in data set [6] were > 17 and > 19, respectively.

As to `COc1cc(CNCCCCCCCCCCCCNCc2ccc(OCc3ccccc3)c(OC)c2)ccc1OCc1ccccc1`, in data set [1], the inhibition of growth at 1 µM was found to be 25%. Further, the IC50 was 1.28 µM in data set [2], > 4.46 µg/mL in data set [4] and 1.37 µM in data set [5]. In addition, the selectivity ratio in data set [3] was > 5.3; in data set [6] it was > 5.67.

Regarding `COc1ccc(CNCCCCCCCCNCc2ccc(OC)c(O)c2)cc1O`, the inhibition of growth at 1 µM in data set [1] came out at 25%. Also, the IC50 was 4.8 µM in data set [2], > 4.46 µg/mL in data set [4] and 5.52 µM in data set [5]. Besides, the selectivity ratio in data set [3] is > 2.1; in data set [6] it was > 2.38.

For `COc1cc(CNCCCCCCCCNCc2ccc(OCc3ccccc3)c(OC)c2)ccc1OCc1ccccc1`, the “growth inhibition (GI)” value in data set [1] was “inactive”. Moreover, the results for the IC50 in data set [2], in data set [4] and in data set [5] were 0.31 µM, 4.52 µM and 0.43 µM, respectively. For the same compound, the selectivity ratio is 10.5 in data set [3] and 14.6 in data set [6].

With `COc1ccc(CNCCCNCc2ccc(OC)c(O)c2)cc1O`, the IC50 is > 8 µM in data set [2], > 4.46 µg/mL in data set [4] and > 8 µM in data set [5].

On to `COc1ccc(CNCCCCCCCCCCNCc2ccc(OC)c(O)c2)cc1O`, for which the inhibition of growth at 1 µM in data set [1] was 25%. Moreover, the IC50 in data set [2] is 1.97 µM; in data set [4], > 4.46 µg/mL; in data set [5], 1.88 µM. Besides, the selectivity ratio is > 5.7 in data set [3] and > 5.41 in data set [6].

For `CCc1nc(N)nc(N)c1-c1ccc(Cl)cc1`, in data set [1], the “growth inhibition (GI)” value is “inactive”.

For the compound `COc1ccc(CNCCCNCc2ccc(OC)cc2)cc1`, in data set [1], the inhibition of growth at 1 µM stood at 50%. In addition, the half-inhibitory concentration (IC50) in data set [2] is 3.18 µM; in data set [4] it was > 4.46 µg/mL; in data set [5], 5.41 µM. For the same compound, the selectivity ratio was > 2.8 in data set [3] and > 4.8 in data set [6].

`COc1ccc(CNCCCCCCCCNCc2ccc(OC)cc2)cc1`: the inhibition of growth at 1 µM in data set [1] is 25%. In addition, the IC50 in data set [2] was 1.48 µM; in data set [4], > 4.46 µg/mL; in data set [5] it was 1.69 µM. Also, the results for the selectivity ratio in data set [3] and in data set [6] were > 7.3 and > 8.4, respectively.

Turning to `COc1ccc(CNCCCCCCNCc2ccc(OC)c(O)c2)cc1O`, the inhibition of growth at 1 µM in data set [1] came to 50%. Moreover, the figures for the IC50 in data set [2], in data set [4] and in data set [5] were > 8 µM, > 4.46 µg/mL and > 8 µM, respectively.

On to `COc1ccc(CNCCCCCCNCc2ccc(OC)cc2)cc1`, for which the inhibition of growth at 1 µM in data set [1] is 25%. For the same compound, the values for the half-maximal inhibitory concentration (IC50) in data set [2] and in data set [5] were 3.08 µM and 3.36 µM, respectively. The values for the selectivity ratio in data set [3] and in data set [6] were 2.5 and 2.4, respectively.

As for `COc1ccc(CNCCCCCCCCCCCCNCc2ccc(OC)c(O)c2)cc1O`, the inhibition of growth at 1 µM in data set [1] turned out to be 25%. Besides, the IC50 was 1.97 µM in data set [2], > 4.46 µg/mL in data set [4] and 2.88 µM in data set [5]. The selectivity ratio is > 3.5 in data set [3] and > 5.1 in data set [6].

Consider `C[C@@H]1CC[C@H]2[C@@H](C)C(=O)O[C@@H]3O[C@@]4(C)CC[C@@H]1[C@]32OO4` [ARTEMISININ], for which the IC50 in data set [2] and in data set [5] was 0.094 µM each time.

`COc1cc(CNCCCCCCCCCCNCc2ccc(OCc3ccccc3)c(OC)c2)ccc1OCc1ccccc1`: the inhibition of growth at 1 µM in data set [1] was 25%. Besides, the IC50 in data set [2] was 1.12 µM; in data set [4], > 4.46 µg/mL; in data set [5], 1.05 µM. The selectivity ratio is > 7.2 in data set [3] and > 6.8 in data set [6].

As to `COc1cc(CNCCCCCCNCc2ccc(OCc3ccccc3)c(OC)c2)ccc1OCc1ccccc1`, in data set [1], the inhibition of growth at 1 µM was determined as 25%. For the same compound, the IC50 in data set [2] was 0.26 µM; in data set [4], > 4.46 µg/mL; in data set [5], 0.44 µM. Also, the selectivity ratio is > 19 in data set [3] and > 31.7 in data set [6].

Regarding `COc1ccc(CNCCCCNCc2ccc(OC)c(O)c2)cc1O`, in data set [1], the inhibition of growth at 1 µM came out at 75%. Besides, the IC50 in data set [2] was > 8 µM; in data set [4], > 4.46 µg/mL; in data set [5], > 8 µM.

The IC50 is the point on the concentration scale where inhibition reaches its midpoint.
